Assays:
Humulin® N (U40) = experiment: Modified 10X Glycerin Stress Test (Mod.10X-GST): HMWP growth by size exclusion HPLC; type: physicochemical, human
Experimental: One milliliter of Humulin® N (U40, Eli Lilly & Co., Indianapolis IN, USA) is spiked with about 160 mg (about 128 µl) of glycerin to be tested. This glycerin level is about ten times the normal level found in commercial products. Another milliliter of Humulin® N U40 is spiked with 128 µL of water. Both samples are stored at 30°C for 7 days. The high molecular weight protein (HMWP) level of the two samples is then measured by size exclusion HPLC chromatography under denaturing conditions [e.g., Waters column labeled "Protein-Pak 125 insulin assay certified", Waters Corporation (Milford, MA, USA) part number 20574; mobile phase 65 parts of a 1 mg/mL L-arginine solution, 20 parts of acetonitrile and 15 parts of glacial acetic acid]. The test samples are solubilized by acidification with a small volume of 9.6 N HCl prior to analysis.
The HMWP growth in the sample is calculated as the HMWP level in the 30°C test sample minus the HMWP level in the water spiked control. Percent growth is reported per 7 day period.

Humulin® R (U40) = experiment: 10X Glycerin Stress Test (10X-GST): HMWP growth by size exclusion HPLC; type: physicochemical, human; conditions: Humulin® R with 160 mg/mL glycerin, 7 days at 30°C minus frozen control
Experimental: The 10X Glycerin Stress Test (10X-GST) measures the formation of covalent dimers and polymers in an insulin composition. Glycerin to be tested is added to Humulin® R (U40, Eli Lilly & Co., Indianapolis IN, USA) to a final concentration of 160 mg/mL of glycerin, i.e., ten times the level of glycerin normally used in this formulation. One aliquot of the resulting formulation is incubated at 30°C for 7 days, while a second aliquot is stored frozen over the same time period. Then, the high molecular weight protein (HMWP) level of the two aliquots is measured by size exclusion HPLC chromatography under denaturing conditions (e.g., Zorbax GF 250 Special column; mobile phase 65 parts of 0.1M ammonium phosphate buffer at pH 7.5 and 35 parts acetonitrile; detection at 214 nm). The growth of HMWP in the test formulation is the concentration of HMWP in the 30°C sample minus the concentration of HMWP in the frozen control.

[1] = Humulin® N with treated or untreated glycerin, 7 days at 30°C, Table 7
[2] = Humulin® N spiked with about 160 mg glycerin per mL, 7 days at 30°C minus water spiked control, Table 5

| Mod.10X-GST Test (Humulin® N (U40); [1]) | 10X-GST Test (Humulin® R (U40)) | Mod.10X-GST Test (Humulin® N (U40); [2]) | Structure (SMILES) |
| --- | --- | --- | --- |
| 1.84% |  |  | OCC(O)CO [Sample 1, glycerin] |
| 1.58% |  |  | OCC(O)CO [Sample 2, glycerin] |
| -0.27% |  |  | OCC(O)CO [Sample 5, glycerin] |
| 4.68% | 0.13 | 0.13% | OCC(O)CO [Sample 6, glycerin] |
| 3.65% | 0.22 | 0.09% | OCC(O)CO [Sample 7, glycerin] |
|  | 0.01 | 0.17% | OCC(O)CO [Sample 8, glycerin] |
| -0.03% |  |  | OCC(O)CO [Sample 10, glycerin] |
